From ChEMBL document CHEMBL5465560, “Selectivity Literature for EUbOPEN Chemogenomic Library” (2024) come the findings set out here.

Assay [1] addresses RAC-beta serine/threonine-protein kinase (Homo sapiens) (UniProt P31751). In words: Selectivity interaction (Ambit KINOMEscan and KiNATiv profiling in Jurkat cells) EUB0000090b AKT2. Format: cell-based. The note with it: at 1 µM.
In assay [2] the target is Mitogen-activated protein kinase 4 (Homo sapiens) (UniProt P31152). In words: Selectivity interaction (Ambit KINOMEscan and KiNATiv profiling in Jurkat cells) EUB0000090b MAPK4. In kind it is cell-based. The note with it: at 1 µM.
Assay [3] deals with Serine/threonine-protein kinase N1 (Homo sapiens, UniProt Q16512). The assay is described as follows: Selectivity interaction (KinomeScan (DiscoverX)) EUB0000666a PKN1. The note with it: at 10 µM.
Assay [4] has as its target Phosphatidylinositol 4,5-bisphosphate 3-kinase catalytic subunit gamma isoform (Homo sapiens) (UniProt P48736). The assay is described as follows: Selectivity interaction (KinomeScan (DiscoverX)) EUB0000229b PIK3CG. The note with it: at 10 µM.
The target in assay [5] is Serine/threonine-protein kinase PAK 3 (Homo sapiens) (UniProt O75914). The assay is described as follows: Selectivity interaction (KinomeScan (DiscoverX)) EUB0000655a PAK3. Particulars: at 10 µM.
In assay [6] the target is Insulin-like growth factor 1 receptor (Homo sapiens, UniProt P08069). In words: Selectivity interaction (KinomeScan (DiscoverX)) EUB0001079a IGF1R. The note with it: at 1 µM.
Assay [7] has as its target Tyrosine-protein kinase JAK1 (Homo sapiens, UniProt P23458). In words: Selectivity interaction (ActivX KiNativ screen (kinase selectivity in THP-1 cell lysates)) EUB0000639a JAK1. Particulars: lysate, at 0.01 µM. Format: subcellular.
In assay [8] the target is Tyrosine-protein kinase Lyn (Homo sapiens, UniProt P07948). The assay is described as follows: Selectivity interaction (ActivX KiNativ screen (kinase selectivity in THP-1 cell lysates)) EUB0000639a LYN. Format: subcellular. Particulars: lysate.
Assay [9] concerns the target Cyclin-dependent kinase 14 (Homo sapiens) (UniProt O94921). The assay is described as follows: Selectivity interaction (ActivX KiNativ screen (kinase selectivity in THP-1 cell lysates)) EUB0000639a CDK14. In kind it is subcellular. Particulars: lysate, at 1 µM.
The target in assay [10] is T1, Serine/threonine-protein kinase Sgk3 (Homo sapiens) (UniProt Q96BR1).
T1 sequence (whole entry): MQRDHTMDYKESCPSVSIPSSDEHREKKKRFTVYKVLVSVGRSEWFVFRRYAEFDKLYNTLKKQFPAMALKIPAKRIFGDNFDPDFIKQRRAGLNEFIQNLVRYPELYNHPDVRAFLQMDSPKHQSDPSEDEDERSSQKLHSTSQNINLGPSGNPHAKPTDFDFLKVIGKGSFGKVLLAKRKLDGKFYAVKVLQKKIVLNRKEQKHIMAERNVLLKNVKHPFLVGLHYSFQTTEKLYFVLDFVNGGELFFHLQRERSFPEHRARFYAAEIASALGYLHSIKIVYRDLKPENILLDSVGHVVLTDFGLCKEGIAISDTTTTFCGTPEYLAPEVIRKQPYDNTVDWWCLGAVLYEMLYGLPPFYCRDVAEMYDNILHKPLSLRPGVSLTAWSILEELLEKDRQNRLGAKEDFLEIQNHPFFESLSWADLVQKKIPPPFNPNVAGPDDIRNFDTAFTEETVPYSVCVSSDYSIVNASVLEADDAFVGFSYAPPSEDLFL
In words: Selectivity interaction (ActivX KiNativ screen (kinase selectivity in THP-1 cell lysates)) EUB0000639a SGK3. Format: subcellular. Particulars: lysate, at 1 µM.

The target of assay [11] is T2, Non-receptor tyrosine-protein kinase TNK1 (Homo sapiens) (UniProt Q13470).
T2 sequence (whole entry): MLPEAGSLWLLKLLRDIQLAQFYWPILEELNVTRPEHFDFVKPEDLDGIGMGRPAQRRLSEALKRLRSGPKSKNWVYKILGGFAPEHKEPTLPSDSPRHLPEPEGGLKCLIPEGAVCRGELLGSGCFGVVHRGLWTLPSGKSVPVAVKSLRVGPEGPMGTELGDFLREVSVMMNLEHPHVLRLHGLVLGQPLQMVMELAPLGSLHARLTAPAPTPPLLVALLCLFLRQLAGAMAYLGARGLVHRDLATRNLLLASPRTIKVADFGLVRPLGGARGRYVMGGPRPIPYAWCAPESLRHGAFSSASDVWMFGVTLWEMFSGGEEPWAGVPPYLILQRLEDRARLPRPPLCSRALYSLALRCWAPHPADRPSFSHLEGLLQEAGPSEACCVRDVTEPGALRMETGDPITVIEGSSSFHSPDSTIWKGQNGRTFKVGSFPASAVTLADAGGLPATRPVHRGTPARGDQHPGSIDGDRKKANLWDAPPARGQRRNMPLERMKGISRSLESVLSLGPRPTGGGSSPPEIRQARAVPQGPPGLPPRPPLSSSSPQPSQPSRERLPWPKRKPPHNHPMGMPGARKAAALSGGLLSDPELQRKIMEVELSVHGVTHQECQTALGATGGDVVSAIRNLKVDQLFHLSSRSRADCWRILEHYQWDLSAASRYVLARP
The assay is described as follows: Selectivity interaction (KinomeScan (DiscoverX)) EUB0000695a TNK1. Particulars: at 100 nM.

Assay [12] has as its system Epidermal growth factor receptor (Homo sapiens), P00533 [UNDEFINED MUTATION]. In words: Selectivity interaction (ProQinase) EUB0000171b EGFR. The note with it: at 5 µM.
Assay [13] concerns the target Dual specificity protein kinase CLK3 (Homo sapiens, UniProt P49761). The assay is described as follows: Selectivity interaction (KinomeScan (DiscoverX)) EUB0000045b CLK3.

Tyrosine-protein kinase Lyn, sequence (P07948 2-512 limits assumed): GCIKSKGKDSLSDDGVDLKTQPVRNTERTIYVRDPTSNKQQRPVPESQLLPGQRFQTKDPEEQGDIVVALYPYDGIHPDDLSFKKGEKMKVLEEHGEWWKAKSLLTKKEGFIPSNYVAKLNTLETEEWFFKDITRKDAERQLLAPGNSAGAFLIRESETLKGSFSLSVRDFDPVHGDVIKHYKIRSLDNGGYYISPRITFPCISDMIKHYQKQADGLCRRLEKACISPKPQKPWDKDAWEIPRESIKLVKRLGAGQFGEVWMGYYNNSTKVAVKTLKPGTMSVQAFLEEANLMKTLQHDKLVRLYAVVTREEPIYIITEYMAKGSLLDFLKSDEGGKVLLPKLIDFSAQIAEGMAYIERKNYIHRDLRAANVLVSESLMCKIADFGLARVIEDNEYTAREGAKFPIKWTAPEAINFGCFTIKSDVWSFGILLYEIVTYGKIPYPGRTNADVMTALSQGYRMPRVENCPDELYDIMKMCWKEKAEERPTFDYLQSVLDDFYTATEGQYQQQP
Dual specificity protein kinase CLK3, sequence (P49761 whole entry, looked up): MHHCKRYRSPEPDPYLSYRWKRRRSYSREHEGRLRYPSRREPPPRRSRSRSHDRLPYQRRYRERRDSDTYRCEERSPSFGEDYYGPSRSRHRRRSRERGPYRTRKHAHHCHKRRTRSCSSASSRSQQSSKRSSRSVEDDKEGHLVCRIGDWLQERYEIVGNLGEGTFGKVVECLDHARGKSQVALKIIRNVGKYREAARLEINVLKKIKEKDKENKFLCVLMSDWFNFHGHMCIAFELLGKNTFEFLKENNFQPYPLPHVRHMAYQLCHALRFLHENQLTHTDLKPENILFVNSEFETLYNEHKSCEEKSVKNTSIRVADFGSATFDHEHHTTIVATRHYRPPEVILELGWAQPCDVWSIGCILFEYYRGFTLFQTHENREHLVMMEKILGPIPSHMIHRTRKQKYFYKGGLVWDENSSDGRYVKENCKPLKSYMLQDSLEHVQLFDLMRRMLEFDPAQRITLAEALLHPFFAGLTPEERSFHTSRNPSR
Epidermal growth factor receptor (Homo sapiens), P00533 [UNDEFINED MUTATION], sequence (P00533 whole entry, looked up, change not shown): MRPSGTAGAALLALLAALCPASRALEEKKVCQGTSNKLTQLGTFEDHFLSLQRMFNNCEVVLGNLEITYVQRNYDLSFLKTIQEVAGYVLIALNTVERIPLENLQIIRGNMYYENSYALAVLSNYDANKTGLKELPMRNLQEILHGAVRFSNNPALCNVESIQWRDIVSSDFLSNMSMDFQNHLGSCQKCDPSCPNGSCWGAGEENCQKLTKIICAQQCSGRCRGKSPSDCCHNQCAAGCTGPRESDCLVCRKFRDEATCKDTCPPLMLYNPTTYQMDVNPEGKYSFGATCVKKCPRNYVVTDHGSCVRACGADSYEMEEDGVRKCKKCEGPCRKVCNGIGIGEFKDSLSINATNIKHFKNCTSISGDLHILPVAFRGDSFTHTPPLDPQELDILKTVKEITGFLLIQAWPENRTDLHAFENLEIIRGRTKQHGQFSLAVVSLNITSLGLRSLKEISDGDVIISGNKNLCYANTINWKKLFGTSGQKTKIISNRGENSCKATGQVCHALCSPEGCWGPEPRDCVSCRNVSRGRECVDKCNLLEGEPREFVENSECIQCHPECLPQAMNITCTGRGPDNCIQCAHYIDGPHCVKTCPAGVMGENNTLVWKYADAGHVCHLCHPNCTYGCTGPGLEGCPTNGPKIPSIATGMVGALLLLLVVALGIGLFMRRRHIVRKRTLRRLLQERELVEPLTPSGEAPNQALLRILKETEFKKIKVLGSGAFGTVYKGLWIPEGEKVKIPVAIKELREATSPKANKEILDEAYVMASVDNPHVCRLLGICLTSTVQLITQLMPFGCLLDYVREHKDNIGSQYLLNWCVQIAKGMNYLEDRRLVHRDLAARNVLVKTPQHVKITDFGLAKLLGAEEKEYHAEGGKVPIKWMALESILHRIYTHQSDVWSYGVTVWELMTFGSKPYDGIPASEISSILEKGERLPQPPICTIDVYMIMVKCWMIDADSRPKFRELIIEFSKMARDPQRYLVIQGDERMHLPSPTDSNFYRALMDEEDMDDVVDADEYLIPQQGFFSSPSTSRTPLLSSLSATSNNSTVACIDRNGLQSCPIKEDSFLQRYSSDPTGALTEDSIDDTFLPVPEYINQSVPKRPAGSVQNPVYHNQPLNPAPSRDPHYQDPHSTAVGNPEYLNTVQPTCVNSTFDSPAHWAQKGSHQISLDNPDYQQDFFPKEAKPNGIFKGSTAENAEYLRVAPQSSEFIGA
Mitogen-activated protein kinase 4 (Homo sapiens), sequence (P31152 whole entry): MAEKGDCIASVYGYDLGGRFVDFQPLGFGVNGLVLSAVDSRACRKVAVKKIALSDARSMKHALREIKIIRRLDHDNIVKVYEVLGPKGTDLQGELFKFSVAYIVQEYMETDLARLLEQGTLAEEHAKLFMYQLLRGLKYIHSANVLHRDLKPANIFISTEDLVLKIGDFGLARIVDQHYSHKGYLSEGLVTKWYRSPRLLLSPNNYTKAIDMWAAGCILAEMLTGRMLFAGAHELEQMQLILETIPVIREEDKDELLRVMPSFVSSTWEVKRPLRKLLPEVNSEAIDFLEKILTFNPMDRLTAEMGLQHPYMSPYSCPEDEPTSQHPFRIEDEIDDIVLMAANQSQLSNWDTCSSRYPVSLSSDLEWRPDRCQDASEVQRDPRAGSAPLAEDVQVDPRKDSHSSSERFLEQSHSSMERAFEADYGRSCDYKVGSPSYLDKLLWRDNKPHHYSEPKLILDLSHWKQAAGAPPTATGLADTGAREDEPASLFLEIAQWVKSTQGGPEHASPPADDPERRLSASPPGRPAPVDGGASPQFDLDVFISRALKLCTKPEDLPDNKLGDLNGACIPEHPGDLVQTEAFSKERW
Serine/threonine-protein kinase PAK 3 (Homo sapiens), sequence (O75914 whole entry, looked up): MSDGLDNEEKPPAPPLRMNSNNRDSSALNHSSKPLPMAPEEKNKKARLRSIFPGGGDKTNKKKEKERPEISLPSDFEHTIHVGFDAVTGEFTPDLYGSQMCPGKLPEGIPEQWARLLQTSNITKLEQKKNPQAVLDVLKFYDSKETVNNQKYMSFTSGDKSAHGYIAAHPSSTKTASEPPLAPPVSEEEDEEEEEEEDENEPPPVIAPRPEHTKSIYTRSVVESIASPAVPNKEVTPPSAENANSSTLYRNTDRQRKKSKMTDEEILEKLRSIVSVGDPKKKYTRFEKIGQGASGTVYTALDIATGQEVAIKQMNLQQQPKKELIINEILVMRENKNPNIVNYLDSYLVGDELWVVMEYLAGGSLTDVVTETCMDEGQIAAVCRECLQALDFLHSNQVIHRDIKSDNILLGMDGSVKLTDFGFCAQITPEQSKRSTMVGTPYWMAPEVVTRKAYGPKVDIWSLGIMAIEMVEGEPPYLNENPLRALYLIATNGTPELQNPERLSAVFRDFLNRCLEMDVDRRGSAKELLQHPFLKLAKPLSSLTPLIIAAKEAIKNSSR
Tyrosine-protein kinase JAK1, sequence (P23458 whole entry): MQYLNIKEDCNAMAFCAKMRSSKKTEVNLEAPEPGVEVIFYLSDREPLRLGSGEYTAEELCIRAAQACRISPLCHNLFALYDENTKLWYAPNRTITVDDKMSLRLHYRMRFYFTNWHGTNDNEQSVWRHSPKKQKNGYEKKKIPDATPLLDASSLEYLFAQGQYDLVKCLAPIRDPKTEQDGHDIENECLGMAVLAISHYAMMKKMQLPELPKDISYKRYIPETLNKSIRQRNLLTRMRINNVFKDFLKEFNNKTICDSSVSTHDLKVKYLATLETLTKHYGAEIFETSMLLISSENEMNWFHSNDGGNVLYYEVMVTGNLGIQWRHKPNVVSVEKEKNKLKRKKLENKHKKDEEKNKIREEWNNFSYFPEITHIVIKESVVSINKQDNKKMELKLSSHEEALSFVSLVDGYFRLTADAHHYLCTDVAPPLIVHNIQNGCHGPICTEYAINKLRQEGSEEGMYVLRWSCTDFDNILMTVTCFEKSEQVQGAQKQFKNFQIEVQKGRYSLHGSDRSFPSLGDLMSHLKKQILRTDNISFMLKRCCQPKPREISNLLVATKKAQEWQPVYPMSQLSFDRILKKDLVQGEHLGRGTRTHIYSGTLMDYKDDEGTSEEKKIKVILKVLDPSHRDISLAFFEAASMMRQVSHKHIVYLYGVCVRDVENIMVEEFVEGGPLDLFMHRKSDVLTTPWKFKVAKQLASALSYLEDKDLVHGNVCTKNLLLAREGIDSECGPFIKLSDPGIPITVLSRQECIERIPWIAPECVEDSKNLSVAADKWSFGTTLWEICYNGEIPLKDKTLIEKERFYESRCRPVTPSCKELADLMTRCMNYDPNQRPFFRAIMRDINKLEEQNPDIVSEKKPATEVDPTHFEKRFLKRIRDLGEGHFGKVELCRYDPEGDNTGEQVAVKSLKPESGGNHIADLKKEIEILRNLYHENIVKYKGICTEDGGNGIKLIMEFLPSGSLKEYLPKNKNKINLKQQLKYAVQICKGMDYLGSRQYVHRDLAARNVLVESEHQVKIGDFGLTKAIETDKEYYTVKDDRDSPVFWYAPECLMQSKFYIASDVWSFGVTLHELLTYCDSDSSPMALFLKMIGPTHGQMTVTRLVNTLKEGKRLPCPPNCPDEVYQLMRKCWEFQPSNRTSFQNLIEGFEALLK
Cyclin-dependent kinase 14 (Homo sapiens), sequence (O94921 whole entry): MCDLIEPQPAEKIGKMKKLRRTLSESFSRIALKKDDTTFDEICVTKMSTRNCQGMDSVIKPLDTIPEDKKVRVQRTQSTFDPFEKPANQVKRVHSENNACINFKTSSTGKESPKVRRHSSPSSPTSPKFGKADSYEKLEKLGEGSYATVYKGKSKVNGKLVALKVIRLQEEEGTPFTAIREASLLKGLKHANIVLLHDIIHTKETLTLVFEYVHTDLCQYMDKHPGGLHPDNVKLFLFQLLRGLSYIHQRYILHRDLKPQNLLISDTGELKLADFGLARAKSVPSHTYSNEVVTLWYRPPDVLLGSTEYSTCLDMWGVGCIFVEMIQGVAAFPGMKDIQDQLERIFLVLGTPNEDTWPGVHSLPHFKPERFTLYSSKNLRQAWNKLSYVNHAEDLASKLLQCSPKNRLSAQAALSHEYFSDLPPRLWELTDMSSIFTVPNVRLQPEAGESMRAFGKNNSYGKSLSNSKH

As to `CN(C)C/C=C/C(=O)Nc1ccc(C(=O)N2CCCC(Nc3ncc(Cl)c(-c4c[nH]c5ccccc45)n3)C2)cc1` (stereo not drawn), the % of control in assay [1] was found to be 80%; in assay [2] it was 64%.
For `O=C(NOC[C@H](O)CO)c1ccc(F)c(F)c1Nc1ccc(I)cc1F`, the % of control in [3] is 100%.
Take `COc1cc(N(C)c2ccnc3ccc(C(F)(F)F)cc23)cc(OC)c1OC`: the % binding in assay [4] amounted to 99%.
The compound `CN(C)CCOc1ccc(-c2nc(-c3ccncc3)c(-c3ccc4c(c3)CC/C4=N\O)[nH]2)cc1` came in with a % of control in assay [5] of 72%.
As to `Nc1cnc(N2CCc3cc(S(=O)(=O)Nc4c(F)cc(Cl)cc4F)cc(N4CCCC4=O)c32)nc1` [TP-020n], the % of control in assay [6] amounted to 90%.
On to `CC[C@@H]1[C@H](F)C(=O)N[C@@H]1COc1nccc2cc(C(N)=O)c(OC)cc12` [ZIMLOVISERTIB], for which the % of inhibition was -2.1% in assay [7]; 12.8% in assay [8] (at 0.01 µM); -4.2% in assay [8] (at 0.04 µM); 5.4% in assay [8] (at 0.2 µM); 6% in [8] (at 1 µM); 2.2% in assay [8] (at 5 µM). The % of inhibition in assay [9] was 1.6%; in assay [10], -1%.
For `Cc1cc(F)c(C(=O)Nc2cccc(-c3nncn3C(C)C)n2)cc1-n1cnc(C2CC2)c1`, in [11], the % of control came out at 100%.
For `C=CC(=O)Nc1cccc(C(=O)Nc2ccc(Nc3cc(-c4[nH]c(SC)nc4C)ccn3)cc2)c1`, the % of control in assay [12] turned out to be 96%.
On to `C=CC(=O)Nc1cc(-n2c(=O)ccc3cnc4ccc(-c5ccc(NS(C)(=O)=O)cc5)cc4c32)ccc1C`, for which the % of control in [13] (at 1 µM) was 100%; in assay [13] (at 10 µM), 98%.
